Where two headings read alike, the source gives them in different places.
Legend:
[1] = system: T. brucei brucei bloodstream form parasites (strain Lister 427); experiment: Antitrypanosomal activity assay (resazurin; FIG. 2); assay type: cell-based; details: Trypanosoma brucei; 66 h + 6 h resazurin
Description: (A) The trypanosoma cell count and growth were evaluated at different doses of compounds of the invention.
Antitrypanosomal activity was tested on T. brucei brucei bloodstream from parasites (strain—Lister 427, VATMITat 1.2). Stock solutions of compounds (50 mM) were prepared in DMSO. Two fold serial dilutions of each compound (10 wells in each row) were prepared in 96 well plates in HMI111 medium (100 μl/well; quadruplicates; cf. also Hirumi et al., J. Parasitol. 75 (1989), 985-989). One well without compound, and one well with media alone were included in each row. […] The plates were incubated for 66 hours at 37° C. in the incubator with 5% CO2. 20 μl resazurin (Sigma, 0.125 mg/ml in Hanks Balanced Salt Solution) was added to all wells and the plate was further incubated for 6 hours. Change in color of resazurin (blue to pink) by living cells was measured with a 96 well plate reader (excitation at 530 nm, emission at 585 nm, filter cut-off: 570 nm). Percent inhibition values were calculated by setting the well without compound to “0% inhibition”.

[2] = target: PEX5-PEX14 complex (biotin-coupled PEX5 peptide, His-tagged T. brucei PEX14) (Trypanosoma brucei brucei, UniProt Q38CL4); experiment: biochemical; assay type: binding; details: 30 nM PEX5, 30 nM PEX14, quadruplicate
Chain of PEX5-PEX14 complex (biotin-coupled PEX5 peptide, His-tagged T. brucei PEX14) (Q38CL4 1-366, one chain of several): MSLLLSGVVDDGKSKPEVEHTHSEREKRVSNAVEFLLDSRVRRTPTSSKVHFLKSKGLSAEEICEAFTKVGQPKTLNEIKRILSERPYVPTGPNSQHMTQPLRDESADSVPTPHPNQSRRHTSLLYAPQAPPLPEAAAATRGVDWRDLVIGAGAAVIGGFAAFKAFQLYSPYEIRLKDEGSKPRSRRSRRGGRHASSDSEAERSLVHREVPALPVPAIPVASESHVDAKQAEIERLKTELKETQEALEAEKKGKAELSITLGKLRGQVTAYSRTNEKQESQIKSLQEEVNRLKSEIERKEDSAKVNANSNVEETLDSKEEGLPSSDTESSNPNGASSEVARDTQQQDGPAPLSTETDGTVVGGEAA
Source text: The assay uses two types of beads: donor beads are coupled with streptavidin, and acceptor beads are coupled with an anti His-tag antibody. Upon excitation with light of a wavelength of 680 nm the donor beads produce reactive oxygen species that travel in solution only for a limited distance. If the acceptor beads are within that travel distance, it will absorb the reactive oxygen and emit light in the range of 520-620 nm. […] Thus, PEX5-PEX14 complex dissociation by a ligand caused decrease in light emission as the donor and acceptor beads were separated. Typically, we used 30 nM PEX5, 30 nM PEX14 and bead concentrations of 5 μg/mL. The PEX5-PEX14 complex was incubated with varying concentrations of inhibitor for 1 hour. Next, the beads were added and the system allowed to equilibrate for another hour. The raw data were fitted to four parameter sigmoidal curves by Origin software and EC50 values calculated. Each measurement was performed in quadruplicate and every experiment was accompanied with blank and reference samples (using non-biotynylated PEX5 peptide as a binding competitor).

[3] = read-out: AlphaScreen EC50 [μM] (±SD)

Structure (SMILES)	IC50 [1]	EC50 [2, 3]	EC50 ([2]; AlphaScreen EC50 [μM] (±SD))
Cn1nc(C(=O)NCc2ccccc2)c2c1CCN(Cc1ccc(-c3ccccc3)cc1)C2 [Compound 9]	6.8 µM	27.8 µM	
COc1ccc(CN2CCc3c(c(C(=O)NCc4cccc5[nH]ccc45)nn3CCO)C2)c2ccccc12 [Compound 60]	5.6 µM	20.2 µM	
COC(=O)c1ccc2c(CN3CCc4c(c(C(=O)NCc5cccc6ccccc56)nn4CCO)C3)c[nH]c2c1 [Compound 108]		38.7 µM	
O=C(CC1CC1)N1CCc2c(c(C(=O)N3CCc4ccccc4C3)nn2Cc2ccccn2)C1 [Compound 73]		220 µM	
O=C(NCc1ccccc1)c1nn(-c2ccccc2)c2c1CN(Cc1c[nH]c3ccccc13)CC2 [Compound 6]	8 µM	18.3 µM	
CC(NC(=O)c1nn(CCO)c2c1CN(CC1Cc3ccccc3CN1C)CC2)c1ccccc1 (stereo not drawn) [Compound 86]		169 µM	
O=C(c1nn(Cc2ccccn2)c2c1CN(Cc1ccccc1)CC2)N1CCc2ccccc2C1 [Compound 67]		74.3 µM	
CC(NC(=O)c1nn(CCO)c2c1CN(C(=O)c1ncc3sccn13)CC2)c1ccccc1 (stereo not drawn) [Compound 87]		230 µM	
CC(NC(=O)c1nn(CCO)c2c1CN(Cc1cccc3c1OCO3)CC2)c1ccccc1 (stereo not drawn) [Compound 69]		151 µM	
O=C(NCc1cccc2ccccc12)c1nn(CCO)c2c1CN(Cc1cccc3cc[nH]c13)CC2 [Compound 53]	6.8 µM	39.8 µM	
O=C(NCc1ccccc1)c1nn(CCO)c2c1CN(Cc1ccc(-c3ccccc3)cc1)CC2 [Compound 78]		68.8 µM	
O=C(NCc1ccccc1)c1nn(CCO)c2c1CN(Cc1cnn(-c3ccccc3)c1)CC2 [Compound 82]		149 µM	
Cn1nc(C(=O)NCc2ccccc2)c2c1CCN(Cc1ccccc1)C2 [Compound 7]	45 µM	4530 µM	
COc1ccc(CN2CCc3nn4c(c3C2)C(=O)N(Cc2cccc3ccccc23)CC4)c2ccccc12 [Compound 91]	6.4 µM	19.2 µM	
COC(=O)c1cccc2c(CN3CCc4c(c(C(=O)NCc5ccccc5)nn4CCO)C3)c[nH]c12 [Compound 28]		155 µM	
COc1ccc2cc(CN3CCc4c(c(C(=O)NCc5cccc6ccccc56)nn4CCO)C3)ccc2c1 [Compound 114]	3.9 µM	121 µM	
COc1ccc(CN2CCc3c(c(C(=O)NCc4cccc5ccccc45)nn3CCNC(=N)N)C2)c2ccccc12 [Compound 94]	0.74 µM	1.4 µM	
Cn1nc(C(=O)NCc2ccccc2)c2c1CCN(Cc1cccc(-c3ccccc3)c1)C2 [Compound 10]	7.4 µM	33.6 µM	
O=C(NCc1cccc2ccccc12)c1nn(CCO)c2c1CN(Cc1c[nH]c3c(C(=O)O)cccc13)CC2 [Compound 117]		391 µM	
COc1ccc(CN2CCc3c(c(C(=O)NCc4cccc(C)c4)nn3CCO)C2)c2ccccc12 [Compound 62]	4.5 µM	38.1 µM	

Structure (SMILES)	IC50 [1]	EC50 [2, 3]	EC50 ([2]; AlphaScreen EC50 [μM] (±SD))
O=C(NCc1cccc2ccccc12)c1nn(CCO)c2c1CN(CCc1ccccc1)CC2 [Compound 116]		230 µM	
O=C(NCc1cccc2ccccc12)c1nn(CCO)c2c1CN(Cc1ccc(C(F)(F)F)cc1)CC2 [Compound 48]	5.4 µM	34 µM	
Cc1ccccc1-c1ccc(CN2CCc3c(c(C(=O)NCc4ccccc4)nn3CCO)C2)cc1 [Compound 80]		45.9 µM	
COc1ccc2c(CN3CCc4c(c(C(=O)NCc5cccc6ccccc56)nn4CCO)C3)c[nH]c2c1 [Compound 106]	4.6 µM	25 µM	
O=C(NCc1ccccc1)c1nn(CCO)c2c1CN(Cc1cccn1-c1ccccn1)CC2 [Compound 83]		132 µM	
O=C(NCc1cccc2ccccc12)c1nn(CCO)c2c1CN(Cc1c[nH]c3cc(OCc4ccccc4)ccc13)CC2 [Compound 113]		72.1 µM	
COc1ccc(CN2CCc3c(c(C(=O)NCc4cccc5ccccc45)nn3CCN)C2)c2c1CCCC2 [Compound 100]	0.05 µM	4.62 µM	
COc1ccc(CN2CCc3c(c(C(=O)NCc4cccc5ccccc45)nn3-c3cnccn3)C2)c2ccccc12 [Compound 14]	3.61 µM	11.9 µM	
Cn1nc(C(=O)NCc2ccc3ccccc3c2)c2c1CCN(Cc1c[nH]c3ccccc13)C2 [Compound 31]		35.2 µM	
COc1ccc(CN2CCc3c(c(C(=O)NCc4cccc5cccnc45)nn3CCO)C2)c2ccccc12 [Compound 61]	7 µM	24.1 µM	
O=C(NCc1ccccc1)c1nn(CCO)c2c1CN(Cc1ccc(OC(F)(F)F)cc1)CC2 [Compound 24]	25 µM	80.4 µM	
O=C(NCc1cccc2ccccc12)c1nn(CCO)c2c1CN(Cc1ccc(-c3ccccc3)cc1)CC2 [Compound 38]	3.7 µM	10.4 µM	
Cc1ccc(CCN2CCc3c(c(C(=O)NCc4cccc5ccccc45)nn3CCO)C2)cc1 [Compound 118]		632 µM	
O=C(NCc1ccccc1)c1nn(CCO)c2c1CN(Cc1ccccc1C(F)(F)F)CC2 [Compound 72]		223 µM	
COc1ccc(CN2CCc3c(c(C(=O)NCc4cc(F)cc5ccccc45)nn3CCO)C2)c2ccccc12 [Compound 107]	2.9 µM	28.7 µM	
C=C(C)C1CC=C(CN2CCc3c(c(C(=O)NCc4ccccc4)nn3CCO)C2)CC1 (stereo not drawn) [Compound 77]		142 µM	
NC(=O)Cn1nc(C(=O)NCc2ccccc2)c2c1CCN(Cc1c[nH]c3ccccc13)C2 [Compound 4]	51 µM	1380 µM	
COc1ccc(CN2CCc3c(c(C(=O)NCc4cccc5ccccc45)nn3CCC(C)(C)C)C2)c2ccccc12 [Compound 124]	3.5 µM		
COc1ccc(CN2CCc3c(c(C(=O)NCc4cccc5ccccc45)nn3C3CCCC3)C2)c2ccccc12 [Compound 16]	2.35 µM	10.6 µM	
COc1cc(CN2CCc3c(c(C(=O)NCc4ccccc4)nn3CCO)C2)cc2c1OCO2 [Compound 75]		94.9 µM	

Structure (SMILES)	IC50 [1]	EC50 [2, 3]	EC50 ([2]; AlphaScreen EC50 [μM] (±SD))
CCc1ccc(CN2CCc3c(c(C(=O)NCc4ccccc4)nn3CCO)C2)cc1 [Compound 71]		150 µM	
Cn1nc(C(=O)NCc2cccc3ccccc23)c2c1CCN(Cc1cccc3ccccc13)C2 [Compound 33]		41.8 µM	
COc1ccc(CN2CCc3c(c(C(=O)NCc4cccc5ccccc45)nn3C3CCC3)C2)c2ccccc12 [Compound 18]	1.85 µM	11.1 µM	
O=C(NCc1ccccc1)c1nn(CCO)c2c1CN(Cc1cc3ccccc3c3ccccc13)CC2 [Compound 30]	6.6 µM		29.8 µM
O=C(NCc1cccc2ccccc12)c1nn(CCO)c2c1CN(Cc1cccc(-c3ccccc3)c1)CC2 [Compound 39]	5.5 µM	12.7 µM	
Cn1nc(C(=O)NCc2ccccc2)c2c1CCN(Cc1cccc3ccccc13)C2 [Compound 12]	12 µM		
C=CCn1nc(C(=O)NCc2ccccc2)c2c1CCN(Cc1ccc3ncccc3c1)C2 [Compound 79]		95.4 µM	
O=C(NCc1ccccc1)c1nn(CCO)c2c1CN(Cc1ccc3c(c1)OC=CO3)CC2 [Compound 68]		159 µM	
CC(NC(=O)c1nn(CCO)c2c1CN(Cc1ccc3ccoc3c1)CC2)c1ccccc1 (stereo not drawn) [Compound 66]		147 µM	
COc1ccc(CN2CCc3c(c(C(=O)NCc4cccc5ccccc45)nn3CC(O)CN)C2)c2ccccc12 (stereo not drawn) [Compound 104]	0.2 µM	10.6 µM	
CC(=O)c1ccc(CN2CCc3c(c(C(=O)NCc4ccccc4)nn3CCO)C2)cc1 [Compound 29]		222 µM	
CC(NC(=O)c1nn(CCO)c2c1CN(Cc1cnn(-c3ccccc3)c1)CC2)c1ccccc1 (stereo not drawn) [Compound 65]		112 µM	
Cn1nc(C(=O)NCc2ccccc2)c2c1CCN(Cc1noc3c1CCCC3)C2 [Compound 70]		9.69 µM	
O=C(NCc1ccccc1)c1nn(CCO)c2c1CN(CC1=CC(=O)C3C=C(Cl)C=CC3O1)CC2 (stereo not drawn) [Compound 64]		132 µM	
CCOC(=O)CN(Cc1cccc2ccccc12)C(=O)c1nn(CCO)c2c1CN(Cc1ccc(OC)c3ccccc13)CC2 [Compound 121]	5 µM		
O=C(NCc1ccccc1)c1nn(CCO)c2c1CN(Cc1ccccc1-c1ccco1)CC2 [Compound 74]		78.3 µM	
CCc1ccc(CN2CCc3c(c(C(=O)NCc4ccccc4)nn3CCO)C2)cc1 [Compound 23]		133 µM	
O=C(NCc1ccccc1)c1nn(CCO)c2c1CN(CC(c1ccccc1)c1ccccc1)CC2 [Compound 81]		74.9 µM	
O=C(NCc1ccccc1)c1nn(CCO)c2c1CN(Cc1cccc(OC(F)F)c1)CC2 [Compound 76]		148 µM	
Cc1nc2sccn2c1CN1CCc2c(c(C(=O)NCc3ccccc3)nn2CCO)C1 [Compound 63]		171 µM	

Source: patent publication US10138242B2, “Pyrazolopyridine derivatives and their use in therapy” (HELMHOLTZ ZENTRUM MUENCHEN—DEUTSCHES FORSCHUNGSZENTRUM FUER …, priority 2015, dated 2018)
